Laboratory results: patent publication US12018157B2, “Tunable photoactivatable silicon rhodamine fluorophores” (SPIROCHROME AG, priority 2017, dated 2024)

Assays:
[1] = UV-Vis analysis / full absorbance spectra of PA-SiR 2a before and after UV irradiation; type: physicochemical; settings: PBS
Protocol: PBS solutions of different pH were adjusted by addition of HCl or NaOH solution using a pH meter.
Solutions were prepared in PBS ([…] or 20 μM) at the indicated pH. UV irradiation was performed outside of the spectrometer for the indicated period (T). Absorbance spectra were recorded using a SHIMADZU UV spectrophotometer (UV-1800) and 1 cm fluorescence quartz cuvettes (Hellma Analytics). Spectra were recorded every minute.
Solutions of 2a in PBS (10 μM) at the desired pH were prepared in 1 cm fluorescence quartz cuvette (Hellma Analytics). UV irradiation was performed directly inside the spectrophotometer during the running experiment at a fixed distance (F, single flash). Kinetic absorbance measurements were recorded on a Perkin-Elmer Lambda 950 spectrophotometer at 646 nm.

[2] = tested on: Actin; experiment: Live-cell imaging, localisation of PA-SiR-Actin to its target; type: cell-based
Protocol: (§1) HeLa or U2OS cells were cultured in high-glucose DMEM media with GlutaMAX-1 (Life Technologies) supplemented with 10% FBS (Life Technologies) in a humidified 5% CO2 incubator at 37° C. Cells were split every 3-4 days or at confluency.
(§2) Cells were stained with 1-3 μM PA-SiR (1-2 h, 37° C.), washed with phenol-red free DMEM medium (Life Technologies) or PBS (once for 3 min, 37° C.) and imaged in the same medium.
(§3) Imaging was performed using a Leica DMI6000B microscope equipped with a Hamamatsu-C9100 EM-CCD camera and a HCX PL APO 100.0×1.47 Oil objective and a standard Cy5 filter set was used. Activation of the fluorophores was achieved by irradiation with the DAPI-channel at 100% for 10-20 s. The same settings (exposure time=150 ms, gain=3, EM-gain=800, transmission=12.5%) were used for the images taken before and after UV irradiation in the SiR-channel.
(§4) Confocal imaging was performed on a Leica DMi8 microscope equipped with a Leica TCS SP8 X scanhead, a white light laser, a 355 nm laser (Coherent) and HC PL APO 63×1.47 Oil objective. The 355 nm laser was used to perform the photoactivation.

[3] = tested on: DNA; experiment: Live-cell imaging, localisation of PA-SiR-DNA to its target; type: cell-based
Protocol: as §1, §2, §3, §4

[4] = tested on: HaloTag-H2B fusion; experiment: Live-cell imaging, U2OS cells expressing HaloTag-H2B fusion; type: cell-based; settings: 1 μM, 1 h (FIG. 3)
Protocol: FIG. 3 U2OS cells expressing HaloTag-H2B fusion stained with PA-SiR-Halo for 1 h (1 μM) and washed once for 3 min. Images were taken before and after irradiation with the 355 nm laser on a confocal microscope. Scale bar 30 μm.
(§5) Mammalian expression vectors with a SNAP-tag-NLS or SNAP-tag-Halo-tag-NLS fusion construct were available in the Johnsson lab. H2B-Halo was constructed from a pEBTet plasmid and the commercially available pCLIPf-H2B plasmid (NEB).
as §1
(§6) Cells were seeded on glass bottom 35 mm dishes (Mattek) one day before imaging. Transient transfection of cells was performed using Lipofectamine™ 2000 reagent (Life Technologies) according to the manufacturer's recommendations: DNA (2.5 μg) was mixed with OptiMEM I (100 μL, Life Technologies) and Lipofectamine™ 2000 (6 μL) was mixed with OptiMEM I (100 μL). The solutions were incubated for 5 min at room temperature. They were mixed and incubated for 20 min at room temperature. Prepared DNA-Lipofectamine complex was added to a glass bottom 35 mm dish with cells at 50-70% confluency. […]

[5] = tested on: HaloTag in the nucleus of Hela cells; experiment: Live-cell imaging, localisation in Hela cells expressing HaloTag in the nucleus; type: cell-based
Protocol: as §5, §1
as §6, with “confluency. After 6 h incubation in a humidified 5% CO2 incubator at 37° C. the medium was changed to a fresh high-glucose DMEM medium with GlutaMAX-1 supplemented with 10% FBS. The cells were incubated for 1-2 days before imaging.” for “confluency.”

[6] = tested on: SNAP-tag in the nucleus of Hela cells; experiment: Live-cell imaging, localisation in Hela cells expressing SNAP-tag in the nucleus; type: cell-based
Protocol: as §5, §1
as §6, with “confluency. After 6 h incubation in a humidified 5% CO2 incubator at 37° C. the medium was changed to a fresh high-glucose DMEM medium with GlutaMAX-1 supplemented with 10% FBS. The cells were incubated for 1-2 days before imaging.” for “confluency.”

[7] = tested on: Tubulin; experiment: Live-cell imaging, localisation of PA-SiR-Tubulin to its target; type: cell-based
Protocol: as §1, §2, §3, §4

SMILES: CN(C)c1ccc2c(c1)[Si](C)(C)c1cc(N(C)C)ccc1C2=CCCC(=O)O [2a, 4-(3,7-Bis(dimethylamino)-5,5-dimethyldibenzo[b,e]silin-10(5H)-ylidene)butanoicacid]
- absorbance (before photoactivation) [1]: only absorbance in the UV-range

SMILES: C/C1=C\CC[C@H](C)OC(=O)C[C@H](c2ccc(O)cc2)NC(=O)[C@@H](Cc2cc3ccccc3[nH]2)N(C)C(=O)[C@H](CCCCNC(=O)CCC=C2c3ccc(N(C)C)cc3[Si](C)(C)c3cc(N(C)C)ccc32)NC(=O)[C@@H](C)C1 [PA-SiR-Actin, N-(4-((4R,7R,10S,13S,19S,E)-7-((1H-Indol-2-yl)methyl)-4-(4-hydroxyphenyl)-8,13,15,19-tetramethyl-2,6,9,12-tetraoxo-1-oxa-5,8,11-triazacyclononadec-15-en-10-yl)butyl)-4-(3,7-bis(dimethylamino)-5,5-dimethyldibenzo[b,e]silin-10(5H)-ylidene)butanamide]
- localisation to target (actin) [2]: localised to their targets

SMILES: CN1CCN(c2ccc3nc(-c4ccc5nc(-c6ccc(OCCCCNC(=O)CCC=C7c8ccc(N(C)C)cc8[Si](C)(C)c8cc(N(C)C)ccc87)cc6)[nH]c5c4)[nH]c3c2)CC1 [PA-SiR-DNA, 4-(3,7-Bis(dimethylamino)-5,5-dimethyldibenzo[b,e]silin-10(5H)-ylidene)-N-(4-(4-(6-(4-methylpiperazin-1-yl)-1H,3′H-[2,5′-bibenzo[d]imidazol]-2′-yl)henoxy)butyl)butanamide]
- localisation to target (DNA) [3]: localised to their targets

SMILES: CN(C)c1ccc2c(c1)[Si](C)(C)c1cc(N(C)C)ccc1C2=CCCC(=O)NCCOCCOCCCCCCCl [PA-SiR-Halo, 4-(3,7-Bis(dimethylamino)-5,5-dimethyldibenzo[b,e]silin-10(5H)-ylidene)-N-(2-(2-((6-chlorohexyl)oxy)ethoxy)ethyl)butanamide]
- localisation to H2B [4]: successfully localised
- localisation to HaloTag in the nucleus [5]: successfully localised

SMILES: CN(C)c1ccc2c(c1)[Si](C)(C)c1cc(N(C)C)ccc1C2=CCCC(=O)NCc1ccc(COc2nc(N)nc3[nH]cnc23)cc1 [PA-SiR-SNAP, N-(4-(((2-Amino-9H-purin-6-yl)oxy)methyl)benzyl)-4-(3,7-bis(dimethylamino)-5,5-dimethyldibenzo[b,e]silin-10(5H)-ylidene)butanamide]
- localisation to SNAP-tag in the nucleus [6]: successfully localised

SMILES: CC(=O)O[C@@]12CO[C@@H]1C[C@H](O)[C@@]1(C)C(=O)[C@H](O)C3=C(C)[C@@H](OC(=O)C(O)C(NC(=O)CCCCCCCNC(=O)CCC=C4c5ccc(N(C)C)cc5[Si](C)(C)c5cc(N(C)C)ccc54)c4ccccc4)C[C@@](O)([C@@H](OC(=O)c4ccccc4)[C@H]21)C3(C)C (stereo partly drawn) [PA-SiR-Tubulin, (2αR,4S,4αS,6R,9S,11S,12S,12αR,12βS)-12β-Acetoxy-9-((3-(8-(4-(3,7-bis(dimethylamino)-5,5-dimethyldibenzo[b,e]silin-10(5H)-ylidene)butanamido)octanamido)-2-hydroxy-3-phenylpropanoyl)oxy)-4,6,11-trihydroxy-4α,8,13,13-tetramethyl-5-oxo-2α,3,4,4α,5,6,9,10,11,12,12α,12β-dodecahydro-1H-7,11-methanocyclodeca[3,4]benzo[1,2-β]oxet-12-yl benzoate]
- localisation to target (tubulin) [7]: localised to their targets
